{"source": "patent US20200223826A1", "about": "“Glucose-6-Phosphate Dehydrogenase (G6PD)-Modulating Agents And Methods Of Treating G6PD Deficiency” (The Board of Trustees of the Leland Stanford Junior …, priority 2017, published 2020)", "key": {"WT G6PD": {"molecular_target": "T1, WT G6PD (Homo sapiens, UniProt P11413)", "T1 construct": "His (pET-28a) (N, cleaved yes); made in house; host or cells: E. coli C43 (DE3)", "assay": "WT G6PD enzyme activity, recombinant enzyme", "assay_type": "biochemical", "experimental": "Enzyme activity was measured by monitoring NADPH production, which was coupled with diaphorase converting resazurin to fluorescent resorufin (excitation at 565 nm and emission at 590 nm); fluorescent signal was thus proportional to G6PD activity. Assays were performed at 25° C. and run for 5 minutes in buffer containing 50 mM Tris (pH 7.4), 0.5 mM EDTA, 3.3 mM MgCl2, 1 U/ml diaphorase, 0.1 mM resazurin. 10 ng of recombinant enzymes or 10 μg of cell lysates was used for the assay with 10 μM NADP^+ (Sigma) as cofactor and 100 μM G6P (Sigma) as substrate. Steady-state kinetic parameters were obtained by varying concentrations of NADP^+ (0-10 μM) with a constant concentration of G6P (100 μM) and similarly for G6P (0-100 μM) with a constant concentration of NADP^+ (10 μM) with 10 ng of recombinant enzymes. Data analysis was performed using GraphPad Prism software v.6 (GraphPad Software, La Jolla, Calif. USA). Kinetic parameters were obtained by fitting the data to the Michaelis-Menten equation."}, "[1]": {"molecular_target": "6-phosphogluconate dehydrogenase (6PGD) (Homo sapiens, UniProt P52209)", "sequence (P52209 whole entry)": "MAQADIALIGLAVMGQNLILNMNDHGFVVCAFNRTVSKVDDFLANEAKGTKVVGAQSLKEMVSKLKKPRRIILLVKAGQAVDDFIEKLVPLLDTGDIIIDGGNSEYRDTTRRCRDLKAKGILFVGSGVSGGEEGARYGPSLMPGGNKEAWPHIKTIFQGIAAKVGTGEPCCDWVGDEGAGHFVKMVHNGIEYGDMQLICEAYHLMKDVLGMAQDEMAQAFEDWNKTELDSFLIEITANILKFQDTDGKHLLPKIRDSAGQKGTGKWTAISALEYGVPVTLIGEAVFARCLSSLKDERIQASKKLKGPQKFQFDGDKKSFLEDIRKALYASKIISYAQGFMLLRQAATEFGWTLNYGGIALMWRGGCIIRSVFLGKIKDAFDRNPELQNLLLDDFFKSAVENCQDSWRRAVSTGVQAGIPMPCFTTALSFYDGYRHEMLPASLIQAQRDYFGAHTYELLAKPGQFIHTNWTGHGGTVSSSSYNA", "assay": "Selectivity: dimerization or activity of other NAD/NADP+-dependent enzymes", "assay_type": "biochemical"}, "[2]": {"molecular_target": "aldehyde dehydrogenase 3A1 (ALDH3A1) (Homo sapiens, UniProt P30838)", "sequence (P30838 whole entry, species assumed)": "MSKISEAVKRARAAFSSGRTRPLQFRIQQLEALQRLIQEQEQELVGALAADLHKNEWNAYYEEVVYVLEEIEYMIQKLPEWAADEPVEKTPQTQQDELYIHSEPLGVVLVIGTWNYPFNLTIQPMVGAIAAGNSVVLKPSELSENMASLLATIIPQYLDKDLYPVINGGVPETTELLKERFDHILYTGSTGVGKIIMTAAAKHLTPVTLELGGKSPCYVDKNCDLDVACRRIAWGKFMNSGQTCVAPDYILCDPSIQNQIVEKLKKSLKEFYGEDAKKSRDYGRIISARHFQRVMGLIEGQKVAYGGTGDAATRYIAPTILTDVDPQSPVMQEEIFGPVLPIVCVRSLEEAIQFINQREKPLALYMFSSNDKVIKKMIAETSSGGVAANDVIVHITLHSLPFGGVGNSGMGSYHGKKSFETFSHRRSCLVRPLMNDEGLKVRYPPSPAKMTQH", "assay": "Selectivity: dimerization or activity of other NAD/NADP+-dependent enzymes", "assay_type": "biochemical"}, "zebrafish embryos [3]": {"test_system": "zebrafish embryos", "assay": "ROS levels in chloroquine-treated zebrafish embryos", "assay_type": "in vivo", "settings": "chloroquine 50 μg/ml", "experimental": "(§1) Embryos were dechorinated with pronase at 24 hours post fertilization (hpf) and treated with 50 μg/ml of chloroquine and/or AG1 by directly adding the compounds to the well. For ROS measurements, embryos were incubated with compounds for 2 hours, and then the ROS detecting reagent (CM-H2DCFDA) was added at a final concentration of 500 ng/ml to the well for a total treatment time of 5 hours. One embryo was placed to each well of a black, opaque 96-well plate. The florescence was analyzed with excitation/emission at 485/525 nm. After ROS assays, embryos at about 32 hpf were pooled and lysed in buffer containing 50 mM Tris (pH 7.4), 150 mM NaCl, 1 mM EDTA, 0.1% NP-40, and protease inhibitor cocktail, which was followed by three cycles of freeze and thawing in liquid nitrogen. The lysate was centrifuged at 14,000 rpm at 4° C. for 15 minutes. Total protein concentration in the supernatants (total lysate) was determined by Bradford method. 50 μg of total lysate was loaded onto 10% SDS-PAGE gels and the protein level was examined by Western blot using anti-G6PD antibody (Abcam (G6PD: AB87230)). 10 μg of total lysate was used for enzymatic assay. 50 μg of the lysate was used to measure NADPH levels using a NADPH quantification kit (Biovision), according to the manufacturer's instructions."}, "Canton G6PD [4]": {"molecular_target": "T2, Canton G6PD (Homo sapiens, UniProt P11413, R459L)", "T2 construct": "His (pET-28a) (N, cleaved yes); made in house; host or cells: E. coli C43 (DE3)", "T2 sequence (P11413 whole entry R459L)": "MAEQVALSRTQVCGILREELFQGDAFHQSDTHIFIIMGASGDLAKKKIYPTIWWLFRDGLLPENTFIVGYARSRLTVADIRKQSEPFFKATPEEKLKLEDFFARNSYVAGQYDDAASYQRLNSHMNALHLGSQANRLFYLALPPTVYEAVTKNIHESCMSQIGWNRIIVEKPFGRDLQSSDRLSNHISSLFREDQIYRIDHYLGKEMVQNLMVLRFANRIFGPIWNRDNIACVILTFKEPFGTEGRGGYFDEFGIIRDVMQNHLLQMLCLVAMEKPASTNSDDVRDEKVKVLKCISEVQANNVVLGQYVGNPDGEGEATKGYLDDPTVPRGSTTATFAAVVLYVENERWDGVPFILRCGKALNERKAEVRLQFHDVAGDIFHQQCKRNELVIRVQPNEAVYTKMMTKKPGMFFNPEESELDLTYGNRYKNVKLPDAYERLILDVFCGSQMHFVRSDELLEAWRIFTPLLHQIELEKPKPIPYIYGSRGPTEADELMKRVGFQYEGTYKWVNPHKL", "assay": "Native gel electrophoresis, dimerization", "experimental": "200 ng of recombinant enzymes were incubated with the compound (varying in assays) for 10 minutes at room temperature. To prevent streaking and artifacts in native PAGE gel, the samples in a native state (no boiling of sample and no reducing agent in sample buffer) were electrophoresed by […]. Cross-linking assay was initiated by incubating 500 ng of recombinant enzymes in PBS with 0.1% of glutaraldehyde and different concentrations of NADP^+ (0, 10, 100, 1000 μM) or MgCl2 (0, 1, 10, 100 mM). The mixture was incubated for 10 minutes at room temperature, which was followed by the addition of 100 mM Tris (pH 8.0) at a final concentration to terminate the reaction. The samples were electrophoresed as described above."}, "Canton G6PD [5]": {"molecular_target": "T2, Canton G6PD", "assay": "In vitro proteolysis assay with chymotrypsin", "settings": "in the presence of AG1, 25% in its absence", "experimental": "200 ng of recombinant enzymes were incubated with 1 μL of 10 ng/μL chymotrypsin for 1 hour at room temperature. 100 μM of the compound was added to some reaction conditions. The following protein level was examined by Western blot."}, "zebrafish embryos [6]": {"test_system": "zebrafish embryos", "assay": "Pericardial edema in zebrafish embryos", "assay_type": "in vivo", "experimental": "as §1\nLive embryos were anesthetized and mounted in 3% methylcellulose. Embryos were imaged with a Leica M205FA microscope equipped with a 1.0× Plan Apochromatic objective and a SPOT Flex camera or a Leica DM4500B compound microscope equipped with a QImaging Retiga-SRV camera. For hemoglobin staining, fixed embryos were stained with o-dianisidine as previously reported (10), cleared, mounted in 100% glycerol, and imaged with a Leica M205FA microscope equipped with a 1.0× Plan Apochromatic objective and a SPOT Flex camera. All images were captured using SPOT or MetaMorph imaging software (Diagnostic Imaging Inc.) and processed in Photoshop (Adobe). Adjustments were limited to brightness levels and cropping. Analysis was carried out by an observer blinded to the experimental conditions."}, "[7]": {"test_system": "lymphocytes carrying the Canton variant", "assay": "Viability of lymphocytes", "assay_type": "cell-based, human", "settings": "treatment with AG1 for 24 hours", "experimental": "(§2) Cell viability was measured using a Cell-Counting Kit-8 (CCK-8, Dojindo), utilizing WST-8 [2-(2-methoxy-4-nitrophenyl)-3-(4-nitrophenyl)-5-(2,4-disulfophenyl)-2H-tetrazolium monosodium salt, according to the manufacturer's instructions. Cells were subjected to serum starvation for 48 hours before measurement. Cells in 100 μL of medium per well were treated with 10 μL of CCK-8 solution and incubated for 2 hours at 37° C. The absorbance was read at 450 nm. Viability of lymphocytes was measured by staining with a 0.4% solution of trypan blue in buffered isotonic salt solution (pH 7.2). The viability was calculated as the number of viable cells (non-stained by the dye) divided by the total number of cells within the grids on the hemacytometer. Cells were treated with 1 μM of the compound 24 hours before the measurement."}, "[8]": {"test_system": "fibroblasts with the Mediterranean variant", "assay": "Viability of fibroblasts, with and without siRNA knockdown", "assay_type": "cell-based, human", "experimental": "as §2\nEndogenous G6PD was knocked down in each cell line as follows; 2 pmol of siRNA G6PD (Santa Cruz Biotechnology) and 0.5 μg lipofectamine (Invitrogen) were diluted in 10 μL of Opti-MEM medium respectively and incubated for 5 minutes. The diluted siRNA was combined with diluted lipofectamine, which was followed by additional incubation for 20 minutes prior to the addition to cells in a 96-well plate."}}, "data": [{"smiles": "SCCNCCc1c[nH]c2ccccc12", "note": "[AG1, 2-[2-(1H-indol-3-yl)ethylamino]ethanethiol]", "values": [{"measurement": "increase of WT G6PD activity over basal activity", "setting": "WT G6PD", "value": "about 20%"}, {"measurement": "effect on dimerization or activity", "setting": "[1]", "value": "no effect"}, {"measurement": "effect on dimerization or activity", "setting": "[2]", "value": "no effect"}, {"measurement": "ROS levels", "setting": "zebrafish embryos [3]", "value": "reduced"}, {"measurement": "formation of active dimers", "setting": "Canton G6PD [4]", "value": "promoted formation of active dimers"}, {"measurement": "protein remaining after proteolysis", "setting": "Canton G6PD [5]", "value": 50, "unit": "%"}, {"measurement": "embryos exhibiting pericardial edema", "setting": "zebrafish embryos [6]; chloroquine 50 μg/ml", "value": "less embryos exhibiting pericardial edema"}, {"measurement": "pericardial edema due to mesoderm defects", "setting": "zebrafish embryos [6]; tbx16 mutants", "value": "not corrected"}, {"measurement": "viability", "setting": "[7]", "value": "improved"}, {"measurement": "rescue of viability", "setting": "[8]; Mediterranean G6PD expression knocked down by siRNA", "value": "did not rescue"}, {"measurement": "improvement of viability", "setting": "[8]; stress conditions", "value": 22, "unit": "%"}]}]}
